{"source": "paper PMC7462607", "about": "(eLife, 2020)", "key": {"[1]": {"target": "T1, CDK12 kinase domain/CCNK-3xHA (Homo sapiens, UniProt Q9NYV4)", "T1 construct": "ORFs encoding residues 715–1052 of CDK12 and residues 693–1030 of CDK13; expressed in transfected cells; host or cells: 293T", "T1 sequence (Q9NYV4 715-1052)": "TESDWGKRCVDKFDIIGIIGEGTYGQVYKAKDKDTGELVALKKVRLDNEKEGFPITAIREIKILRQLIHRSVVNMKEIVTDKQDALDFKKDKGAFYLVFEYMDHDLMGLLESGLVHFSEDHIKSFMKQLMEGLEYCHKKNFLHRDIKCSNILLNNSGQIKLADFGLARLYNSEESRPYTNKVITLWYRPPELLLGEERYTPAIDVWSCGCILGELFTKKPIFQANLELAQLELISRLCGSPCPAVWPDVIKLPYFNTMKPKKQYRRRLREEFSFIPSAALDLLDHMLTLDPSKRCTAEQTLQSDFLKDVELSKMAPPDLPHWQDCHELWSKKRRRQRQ", "T1 sequence (O75909 whole entry partner, the tested form may be a part)": "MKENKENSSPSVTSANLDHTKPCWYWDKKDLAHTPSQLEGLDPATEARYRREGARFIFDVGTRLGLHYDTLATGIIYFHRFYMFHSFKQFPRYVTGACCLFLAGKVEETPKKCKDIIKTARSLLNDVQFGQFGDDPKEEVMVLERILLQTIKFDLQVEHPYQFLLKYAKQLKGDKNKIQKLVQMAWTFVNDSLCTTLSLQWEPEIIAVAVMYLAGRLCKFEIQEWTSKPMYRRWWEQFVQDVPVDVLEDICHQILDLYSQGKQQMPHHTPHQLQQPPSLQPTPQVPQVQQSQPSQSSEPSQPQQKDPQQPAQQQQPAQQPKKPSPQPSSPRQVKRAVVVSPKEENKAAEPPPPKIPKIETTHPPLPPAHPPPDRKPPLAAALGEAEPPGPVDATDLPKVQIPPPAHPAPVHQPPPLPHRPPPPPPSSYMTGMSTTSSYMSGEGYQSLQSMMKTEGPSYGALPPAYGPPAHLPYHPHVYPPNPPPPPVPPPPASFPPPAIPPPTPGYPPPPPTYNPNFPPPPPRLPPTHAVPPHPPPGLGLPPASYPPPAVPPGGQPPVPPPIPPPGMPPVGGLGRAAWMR", "T1 sequence (Q16531 2-1140 partner limits assumed)": "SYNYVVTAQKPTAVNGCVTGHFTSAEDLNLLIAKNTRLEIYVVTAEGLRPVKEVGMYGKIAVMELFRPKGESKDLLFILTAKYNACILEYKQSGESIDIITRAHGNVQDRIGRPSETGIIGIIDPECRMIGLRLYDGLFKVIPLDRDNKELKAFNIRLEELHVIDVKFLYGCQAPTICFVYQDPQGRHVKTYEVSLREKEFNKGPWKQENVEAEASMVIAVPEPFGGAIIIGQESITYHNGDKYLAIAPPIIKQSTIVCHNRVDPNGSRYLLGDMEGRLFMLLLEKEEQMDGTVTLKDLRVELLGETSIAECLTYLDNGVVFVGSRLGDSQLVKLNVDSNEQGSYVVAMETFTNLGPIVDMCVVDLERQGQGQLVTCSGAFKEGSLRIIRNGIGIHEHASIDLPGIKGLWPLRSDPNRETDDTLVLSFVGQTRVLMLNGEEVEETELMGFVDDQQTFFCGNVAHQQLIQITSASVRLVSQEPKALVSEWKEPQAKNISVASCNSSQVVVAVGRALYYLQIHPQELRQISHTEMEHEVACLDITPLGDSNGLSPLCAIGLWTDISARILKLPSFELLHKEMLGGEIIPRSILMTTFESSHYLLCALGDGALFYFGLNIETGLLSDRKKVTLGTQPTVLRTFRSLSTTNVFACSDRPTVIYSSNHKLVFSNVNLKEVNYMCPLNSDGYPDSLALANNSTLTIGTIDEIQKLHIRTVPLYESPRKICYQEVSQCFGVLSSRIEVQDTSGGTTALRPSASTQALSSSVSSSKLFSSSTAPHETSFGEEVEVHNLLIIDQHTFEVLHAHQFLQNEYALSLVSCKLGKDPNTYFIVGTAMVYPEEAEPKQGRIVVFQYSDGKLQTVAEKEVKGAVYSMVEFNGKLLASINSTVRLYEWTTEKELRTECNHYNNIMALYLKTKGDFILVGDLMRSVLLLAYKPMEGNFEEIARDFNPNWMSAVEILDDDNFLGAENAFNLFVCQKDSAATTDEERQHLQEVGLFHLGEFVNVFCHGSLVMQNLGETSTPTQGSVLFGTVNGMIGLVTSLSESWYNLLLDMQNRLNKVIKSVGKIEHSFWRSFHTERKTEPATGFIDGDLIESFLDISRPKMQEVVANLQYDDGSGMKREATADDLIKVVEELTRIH", "experiment": "Co-expression of 3xFLAG-CDK12 kinase domain with CCNK-3xHA", "type": "cell-based", "conditions": "293T, HQ461 8 hr; not with G731E or G731R", "procedure": "ORFs encoding residues 715–1052 of CDK12 and residues 693–1030 of CDK13 were cloned into a pCDNA3.1-N-3xFLAG vector. For setting up cells for co-transfection, 0.6 million 293 T cells were seeded per well in 6-well tissue-culture plates and allowed to attach to plates overnight. These cells were then transfected with 50 ng of pCDNA3.1-3xFLAG-CDK12/13 kinase domain, 50 ng of pCDNA3.1-CCNK-3xHA, and 400 ng of the empty pCDNA3.1 vector. Twenty-four hours post transfection, cells were treated with HQ461 for 8 hr, and lysates were collected for western blotting with anti-FLAG and anti-HA antibodies."}, "CCNK": {"test_system": "CCNK", "experiment": "In vivo polyubiquitination of CCNK (HEK293T)", "type": "cell-based, Homo sapiens", "conditions": "wild-type CDK12 co-expressed", "procedure": "Wild-type and G731E/R ORFs of 3 × FLAG-CDK12, either full length or the kinase domain (from resides 715–1052), were cloned into the pCDNA3.1-N-3xFLAG vector. An ORF encoding CCNK (NM_001099402.2) was PCR amplified with A549 cDNA and cloned into a pCDNA3.1-C-3xHA vector. pCMV-8 ×His Ub was a gift from Dr. William Kaelin at Dana Farber Cancer Institute of Harvard. To set up cells for the in vivo ubiquitination assay, 0.6 million HEK293T cells were seeded per well in six-well tissue-culture plates. After overnight attachment, these cells were transfected with 500 ng of pCMV 8 × His Ub, 25 ng of pCDNA3.1-CCNK-3xHA, and 50 ng of pCDNA3.1-3xFLAG-CDK12. Two days later, cells were pretreated with 1 µM of bortezomib for 2 hr, followed by treatment with DMSO or three doses of HQ461 (1, 3, 10 µM) for 4 hr. Cells from each well were rinsed once with DPBS and lysed in 500 μL of buffer 1 (25 mM Tris-HCl, pH 8.0, 8 M urea, 10 mM imidazole) freshly supplemented with one units/µL of benzonase and 1x cOmplete, Mini, EDTA-free protease inhibitor cocktail (Roche, Bazel, Switzerland). Lysates were clarified by spinning at 15,000 xg at 4°C for 10 min. Clarified lysate of each sample was mixed with 10 µL of Ni NTA magarose beads (SMART Life Sciences, Changzhou, China, SM00801) prewashed with lysis buffer. […]"}, "CDK12": {"target": "T2, CDK12 (Homo sapiens, UniProt Q9NYV4)", "T2 construct": "Western blotting of CDK12 and CCNK from A549 cells treated with HQ461; endogenous in cells; host or cells: A549", "experiment": "Western blotting of CDK12 protein level in A549 cells", "type": "cell-based", "conditions": "A549, after 8 hr of treatment", "procedure": "(§1) Standard SDS-PAGE and western blotting procedures were used with the following modifications. For preparation of total lysates, cells were rinsed with DPBS to remove residual medium and then lysed in 20 mM HEPES-NaOH, pH 8.0, 10 mM NaCl, 2 mM MgCl2, 1% SDS freshly supplemented with 0.5 units/µL of benzonase and 1x cOmplete, Mini, EDTA-free protease inhibitor cocktail (Roche, Bazel, Switzerland). Protein concentrations of the resulting lysates were quantified by the BCA method. Between 30 to 60 µg of proteins were resolved on SDS-PAGE and transferred to nitrocellulose membranes with a pore size of 0.5 μm. Membranes were blocked in 5% nonfat milk PBST (0.1% v/v Tween-20) for 30 min before blotting with antibodies. […]"}, "[2]": {"test_system": "POLII CTD Serine 2 phosphorylation", "experiment": "Western blotting of POLII CTD Serine 2 phosphorylation", "type": "cell-based, Homo sapiens", "procedure": "as §1"}}, "data": [{"smiles": "Cc1cccc(Nc2nc(CC(=O)Nc3ncc(C)s3)cs2)n1", "note": "[HQ461, 2-(2-((6-methylpyridin-2-yl)amino)thiazol-4-yl)-N-(5-methylthiazol-2-yl)acetamide]", "values": [{"measurement": "CCNK destabilization with co-expressed wild-type CDK12 kinase domain", "setting": "[1]", "value": "sufficient for mediating HQ461-dependent destabilization of CCNK"}, {"measurement": "CCNK polyubiquitination in cells", "setting": "CCNK", "value": "increased CCNK polyubiquitination"}, {"measurement": "reduction of CDK12 protein level", "setting": "CDK12", "value": 50, "unit": "%"}, {"measurement": "inhibitory effect on POLII CTD Serine 2 phosphorylation", "setting": "[2]; A549 with CDK12 G731E or G731R mutation", "value": "abolished"}, {"measurement": "POLII CTD Serine 2 phosphorylation", "setting": "[2]; parental A549", "value": "reduced POLII CTD Serine 2 phosphorylation"}]}]}
